Literature values as cited in US12471595B2, “Liquid pesticidal composition” (SUMITOMO CHEMICAL COMPANY, LIMITED, priority 2019, dated 2025).

How the values were obtained:
[1] = pH7
[2] = 1-octanol/water

| Compound | Water solubility at 25° C. [1] | log P at 25° C. [2] |
| --- | --- | --- |
| CCOC(=O)COc1ncccc1Oc1cc(-n2c(=O)cc(C(F)(F)F)n(C)c2=O)c(F)cc1Cl [Compound A, Ethyl 2-[(3-{2-chloro-4-fluoro-5-[3-methyl-4-(trifluoromethyl)-2,6-dioxo-1,2,3,6-tetrahydropyrimidin-1(2H)-yl]phenoxy}pyridin-2-yl)oxy]acetate] | 2.0 mass ppm | 3.5 |
| CC(O)(Cn1cncn1)c1ccc(Oc2ccc(Cl)cc2)cc1C(F)(F)F (stereo not shown) [Mefentrifluconazole] | 0.81 mass ppm | 3.4 |
| CON(C(=O)c1cn(C)nc1C(F)F)C(C)Cc1c(Cl)cc(Cl)cc1Cl (stereo not shown) [Pydiflumetofen] | 1.5 mass ppm | 3.8 |
| COC(=O)N(OC)c1ccccc1COc1ccn(-c2ccc(Cl)cc2)n1 [Pyraclostrobin] | 1.9 mass ppm | 4.0 |
| Cc1nnc(Cl)c(-c2c(F)cccc2F)c1-c1ccccc1 [Pyridachlometyl] | 0.6 mass ppm | 4.1 |
